The values that follow come from US12098144B2, “Piperazine indazole glucocorticoid receptor antagonists” (Corcept Therapeutics Incorporated, priority 2021, dated 2024).

The target in this experiment is T1, glucocorticoid receptor (Homo sapiens, UniProt P04150).
T1 construct: endogenous in cells; ATCC cat
T1 sequence (P04150 1-777): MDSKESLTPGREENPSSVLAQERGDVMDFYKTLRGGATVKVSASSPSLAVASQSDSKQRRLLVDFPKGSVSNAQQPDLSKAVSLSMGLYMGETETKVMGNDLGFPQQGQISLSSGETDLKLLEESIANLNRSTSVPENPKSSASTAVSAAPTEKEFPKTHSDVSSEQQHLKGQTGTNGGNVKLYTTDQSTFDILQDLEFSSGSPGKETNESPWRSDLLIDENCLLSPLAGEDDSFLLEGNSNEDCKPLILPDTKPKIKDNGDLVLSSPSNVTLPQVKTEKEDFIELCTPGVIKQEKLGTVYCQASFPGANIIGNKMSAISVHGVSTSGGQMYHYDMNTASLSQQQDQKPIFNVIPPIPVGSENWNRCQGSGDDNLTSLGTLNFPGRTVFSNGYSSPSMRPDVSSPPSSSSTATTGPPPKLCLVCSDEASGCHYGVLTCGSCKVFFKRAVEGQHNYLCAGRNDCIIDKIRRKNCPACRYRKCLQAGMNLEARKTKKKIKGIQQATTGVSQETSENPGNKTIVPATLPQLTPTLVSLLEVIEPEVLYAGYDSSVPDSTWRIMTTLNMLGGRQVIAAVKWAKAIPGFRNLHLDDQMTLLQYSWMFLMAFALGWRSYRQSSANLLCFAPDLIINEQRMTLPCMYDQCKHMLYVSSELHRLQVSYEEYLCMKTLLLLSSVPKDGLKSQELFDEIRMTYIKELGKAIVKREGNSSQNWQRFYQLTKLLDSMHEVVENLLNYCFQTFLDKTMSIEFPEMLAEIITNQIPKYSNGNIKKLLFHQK
Put plainly: Hep G2 TAT Ki: inhibition of dexamethasone-induced TAT in HepG2 cells (96 well). It counts as cell-based. The following applies: challenge of 100 nM dexamethasone, IC50 converted to Ki by Cheng and Prusoff equation. On the procedure:
Glucocorticoid mediated activation of TAT occurs by transactivation of glucocorticoid response elements in the TAT promoter by glucocorticoid receptor-agonist complex.
HepG2 cells were cultured using MEME media supplemented with 10% (v/v) foetal bovine serum; 2 mM L-glutamine and 1% (v/v) NEAA at 37° C., 5%/95% (v/v) CO2/air.
Compounds were serially half log diluted in 100% (v/v) dimethylsulphoxide from a 10 mM stock.
HepG2 cells were then lysed with 30 μl of cell lysis buffer containing a protease inhibitor cocktail for 15 minutes at 4° C. […] After 2 hours incubation at 37° C. the reaction was terminated by the addition of 15 μl of 10M aqueous potassium hydroxide solution, and the plates incubated for a further 30 minutes at 37° C.
[compound] and fitting the data to a 4 parameter logistic equation.
As usually defined, the Ki is the equilibrium dissociation constant of an inhibitor or competing ligand from its target. Lower therefore signals higher affinity. Consider “5-(1-(2-fluoro-2-methylpropyl)-4-((2-methyl-2H-1,2,3-triazol-4-yl)sulfonyl)piperazin-2-yl)-1-(4-fluorophenyl)-6-methyl-1H-indazole [Example 162a]”, for which the inhibition constant Ki was 57 nM. This counts as double-digit nanomolar.

`Cc1cc2c(cnn2-c2ccc(F)cc2)cc1[C@@H]1CN(S(=O)(=O)c2cnn(C)n2)CCN1C[C@H]1C[C@@H](O)C1` (racemic) [Example 154, 3-((2-(1-(4-fluorophenyl)-6-methyl-1H-indazol-5-yl)-4-((2-methyl-2H-1,2,3-triazol-4-yl)sulfonyl)piperazin-1-yl)methyl)cyclobutan-1-ol] came in with a Ki of 24 nM.

As for `Cc1cc2c(cnn2-c2ccc(F)cc2)cc1[C@@H]1CN(S(=O)(=O)c2cnn(C)n2)CCN1C[C@H](C)F` (racemic) [Example 158, 1-(4-fluorophenyl)-5-(1-(2-fluoropropyl)-4-((2-methyl-2H-1,2,3-triazol-4-yl)sulfonyl)piperazin-2-yl)-6-methyl-1H-indazole], affinity was put at a Ki of 45 nM.

Compound `Cc1cc2c(cnn2-c2ccc(F)cc2)cc1[C@H]1CN(S(=O)(=O)c2cnn(C)n2)C[C@@H](C)N1CC(C)C` (relative stereo) [Example 127] showed an inhibition constant Ki of 22 nM.

Compound `CO[C@H]1C[C@@H](CN2CCN(S(=O)(=O)c3cnn(C)n3)C[C@H]2c2cc3cnn(-c4ccc(F)cc4)c3cc2C)C1` (relative stereo) [Example 155, 1-(4-fluorophenyl)-5-(1-((3-methoxycyclobutyl)methyl)-4-((2-methyl-2H-1,2,3-triazol-4-yl)sulfonyl)piperazin-2-yl)-6-methyl-1H-indazole] gave a Ki of 11 nM. This Ki lies about 2-fold lower than the previous one.

For `CO[C@H]1C[C@@H](CN2CCN(S(=O)(=O)c3cnc(C)s3)C[C@@H]2c2cc3cnn(-c4ccc(F)cc4)c3cc2C)C1` (relative stereo) [Example 172, 5-((3-(1-(4-fluorophenyl)-6-methyl-1H-indazol-5-yl)-4-((3-methoxycyclobutyl)methyl)piperazin-1-yl)sulfonyl)-2-methylthiazole], the inhibitory constant (Ki) worked out at 36 nM.

`Cc1cc2c(cnn2-c2ccc(F)cc2)cc1C1CN(S(=O)(=O)c2ccn(C)n2)CCN1CC(C)C` (single isomer, unassigned) [Example 1, 1-(4-fluorophenyl)-5-(1-isobutyl-4-((1-methyl-1H-pyrazol-3-yl)sulfonyl)piperazin-2-yl)-6-methyl-1H-indazole] yielded a Ki of 35 nM.

As to `Cc1cc2c(cnn2-c2ccc(F)cc2)cc1C1CN(S(=O)(=O)c2cnn(C)n2)CCN1Cc1ccccc1` (single isomer, unassigned) [Example 5, 5-(1-benzyl-4-((2-methyl-2H-1,2,3-triazol-4-yl)sulfonyl)piperazin-2-yl)-1-(4-fluorophenyl)-6-methyl-1H-indazole], the inhibitory constant (Ki) amounted to 420 nM.

Turning to `Cc1cc2c(cnn2-c2ccc(F)cc2)cc1C1CN(S(=O)(=O)c2cnn(C)n2)CCN1Cc1ccccc1` (single isomer, unassigned) [Example 6, 5-(1-benzyl-4-((2-methyl-2H-1,2,3-triazol-4-yl)sulfonyl)piperazin-2-yl)-1-(4-fluorophenyl)-6-methyl-1H-indazole], affinity was put at a Ki of 46 nM.

Turning to `Cc1cc2c(cnn2-c2ccc(F)cc2)cc1C1CN(S(=O)(=O)c2cnn(C)n2)CCN1CC(C)C` (single isomer, unassigned) [Example 10, 1-(4-fluorophenyl)-5-(1-isobutyl-4-((2-methyl-2H-1,2,3-triazol-4-yl)sulfonyl)piperazin-2-yl)-6-methyl-1H-indazole], affinity was put at a Ki of 430 nM.

Regarding `Cc1cc2c(cnn2-c2ccc(F)cc2)cc1C1CN(S(=O)(=O)c2cnn(C)n2)CCN1CC(C)C` (single isomer, unassigned) [Example 11, 1-(4-fluorophenyl)-5-(1-isobutyl-4-((2-methyl-2H-1,2,3-triazol-4-yl)sulfonyl)piperazin-2-yl)-6-methyl-1H-indazole], the affinity corresponds to a Ki of 20 nM.

Compound `Cc1cc2c(cnn2-c2ccc(F)cc2)cc1C1CN(S(=O)(=O)c2ccn(C)n2)CCN1CC(C)C` (single isomer, unassigned) [Example 20, 1-(4-fluorophenyl)-5-(1-isobutyl-4-((1-methyl-1H-pyrazol-3-yl)sulfonyl)piperazin-2-yl)-6-methyl-1H-indazole] came in with an inhibition constant (Ki) of 130 nM.

Take `Cc1cc2c(cnn2-c2ccc(F)cc2)cc1C1CN(S(=O)(=O)c2cnn(C)n2)CCN1CC(C)C(F)(F)F` (single isomer, unassigned) [Example 21, 1-(4-fluorophenyl)-6-methyl-5-(4-((2-methyl-2H-1,2,3-triazol-4-yl)sulfonyl)-1-(3,3,3-trifluoro-2-methylpropyl)piperazin-2-yl)-1H-indazole]: the inhibition constant (Ki) amounted to 120 nM.

Take `Cc1cc2c(cnn2-c2ccc(F)cc2)cc1[C@@H]1CN(S(=O)(=O)c2cnn(C)n2)CCN1CC(C)C(F)(F)F` (single isomer, unassigned) [Example 23]: the inhibition constant Ki was 13 nM.

With `Cc1cc2c(cnn2-c2ccc(F)cc2)cc1C1CN(S(=O)(=O)c2cnn(C)n2)CCN1C1CCC1` (single isomer, unassigned) [Example 25, 5-(1-cyclobutyl-4-((2-methyl-2H-1,2,3-triazol-4-yl)sulfonyl)piperazin-2-yl)-1-(4-fluorophenyl)-6-methyl-1H-indazole], the affinity, expressed as Ki, was 77 nM.

`COC1CC(N2CCN(S(=O)(=O)c3cnn(C)n3)CC2c2cc3cnn(-c4ccc(F)cc4)c3cc2C)C1` (single isomer, unassigned) [Example 26, 1-(4-fluorophenyl)-5-(1-(3-methoxycyclobutyl)-4-((2-methyl-2H-1,2,3-triazol-4-yl)sulfonyl)piperazin-2-yl)-6-methyl-1H-indazole] came in with an inhibitory constant (Ki) of 180 nM. Compared with the last compound, the Ki is about 2.3-fold higher.

Take `Cc1cc2c(cnn2-c2ccc(F)cc2)cc1C1CN(S(=O)(=O)c2cnn(C)n2)CCN1C1CCCC1` (single isomer, unassigned) [Example 27, 5-(1-cyclopentyl-4-((2-methyl-2H-1,2,3-triazol-4-yl)sulfonyl)piperazin-2-yl)-1-(4-fluorophenyl)-6-methyl-1H-indazole]: the inhibition constant Ki came to 47 nM.

In the case of `Cc1cc2c(cnn2-c2ccc(F)cc2)cc1C1CN(S(=O)(=O)c2cnn(C)n2)CCN1C1COC1` (single isomer, unassigned) [Example 28, 1-(4-fluorophenyl)-6-methyl-5-(4-((2-methyl-2H-1,2,3-triazol-4-yl)sulfonyl)-1-(oxetan-3-yl)piperazin-2-yl)-1H-indazole], the inhibition constant Ki amounted to 230 nM.

For the compound `Cc1cc2c(cnn2-c2ccc(F)cc2)cc1C1CN(S(C)(=O)=O)CCN1Cc1ccccc1` (single isomer, unassigned) [Example 29, 5-(1-benzyl-4-(methylsulfonyl)piperazin-2-yl)-1-(4-fluorophenyl)-6-methyl-1H-indazole], the Ki came to 74 nM.

`Cc1cc2c(cnn2-c2ccc(F)cc2)cc1C1CN(S(C)(=O)=O)CCN1CC1CCOCC1` (single isomer, unassigned) [Example 30, 1-(4-fluorophenyl)-6-methyl-5-(4-(methylsulfonyl)-1-((tetrahydro-2H-pyran-4-yl)methyl)piperazin-2-yl)-1H-indazole]: the inhibition constant Ki was 90 nM.

The compound `Cc1ncc(S(=O)(=O)N2CCN(CC(C)C)C(c3cc4cnn(-c5ccc(F)cc5)c4cc3C)C2)s1` (single isomer, unassigned) [Example 31, 5-((3-(1-(4-fluorophenyl)-6-methyl-1H-indazol-5-yl)-4-isobutylpiperazin-1-yl)sulfonyl)-2-methylthiazole] registered an inhibitory constant (Ki) of 11 nM.
